Data published in patent publication US20090191636A1, “Method of Producing Transgenic Graminaceous Cells and Plants” (priority 2006, published 2009).

Tests used:
[1] = test system: wheat mature dried grain of the cultivar Ventura; experiment: Effect of D-amino acids on germination of wheat mature dried grain (Ventura); type: in vivo; details: n = 15
Experimental: [Worded in the source for another variant; this variant is reported under the same test.] (§1) A range of concentrations of the D-amino acids D-serine and D-alanine were tested for effects on wheat regeneration and germination from embryos derived from mature dried grain of the cultivar Bobwhite.

[2] = test system: wheat embryos derived from mature dried grain of the cultivar Bobwhite; experiment: Effect of D-amino acids on regeneration of wheat from embryos of mature dried grain (Bobwhite); type: cell-based, Triticum aestivum; details: for proportion (%) of explants regenerating after 3 weeks, Average / proportion (%) of explants regenerating after 3 weeks, Experiment number 1 / proportion (%) of explants regenerating after 3 weeks, Experiment number 2 / proportion (%) of explants regenerating after 3 weeks, Experiment number 3: n = 20
Experimental: as §1

[3] = test system: wheat embryos derived from mature dried grain of the cultivar Ventura; experiment: Effect of D-amino acids on regeneration of wheat from embryos of mature dried grain (Ventura); type: cell-based; details: n = 20
[4] = test system: wheat mature dried grain of the cultivar Bobwhite; experiment: Effect of D-amino acids on germination of wheat mature dried grain (Bobwhite); type: in vivo, Triticum aestivum; details: n = 15
Experimental: as §1

## N[C@H](CO)C(=O)O [D-serine]
[1]; 0.5 mM
  germination: proportion (%) of explants regenerating after 1 week, Average: 70%
  germination: proportion (%) of explants regenerating after 1 week, Experiment number 1: 65%
  germination: proportion (%) of explants regenerating after 1 week, Experiment number 2: 60%
  germination: proportion (%) of explants regenerating after 1 week, Experiment number 3: 85%
[1]; 1 mM
  germination: proportion (%) of explants regenerating after 1 week, Average: 68%
  germination: proportion (%) of explants regenerating after 1 week, Experiment number 1: 70%
  germination: proportion (%) of explants regenerating after 1 week, Experiment number 2: 70%
  germination: proportion (%) of explants regenerating after 1 week, Experiment number 3: 65%
[1]; 5 mM
  germination: proportion (%) of explants regenerating after 1 week, Average: 53%
  germination: proportion (%) of explants regenerating after 1 week, Experiment number 1: 60%
  germination: proportion (%) of explants regenerating after 1 week, Experiment number 2: 45%
[1]; 7.5 mM
  germination: proportion (%) of explants regenerating after 1 week, Average: 23%
  germination: proportion (%) of explants regenerating after 1 week, Experiment number 1: 15%
  germination: proportion (%) of explants regenerating after 1 week, Experiment number 2: 20%
  germination: proportion (%) of explants regenerating after 1 week, Experiment number 3: 35%
[1]; 10 mM
  germination: proportion (%) of explants regenerating after 1 week, Average: 43%
  germination: proportion (%) of explants regenerating after 1 week, Experiment number 2: 30%
  germination: proportion (%) of explants regenerating after 1 week, Experiment number 3: 55%
[1]; 30 mM
  germination: proportion (%) of explants regenerating after 1 week, Average: 0%
  germination: proportion (%) of explants regenerating after 1 week, Experiment number 1: 0%
  germination: proportion (%) of explants regenerating after 1 week, Experiment number 2: 0%
  germination: proportion (%) of explants regenerating after 1 week, Experiment number 3: 0%
[2]; 0.5 mM
  proportion (%) of explants regenerating after 3 weeks, Average: 28%
  proportion (%) of explants regenerating after 3 weeks, Experiment number 1: 45%
  proportion (%) of explants regenerating after 3 weeks, Experiment number 2: 33%
  proportion (%) of explants regenerating after 3 weeks, Experiment number 3: 5%
[2]; 1 mM
  proportion (%) of explants regenerating after 3 weeks, Average: 23%
  proportion (%) of explants regenerating after 3 weeks, Experiment number 1: 30%
  proportion (%) of explants regenerating after 3 weeks, Experiment number 2: 33%
  proportion (%) of explants regenerating after 3 weeks, Experiment number 3: 5%
[2]; 5 mM
  proportion (%) of explants regenerating after 3 weeks, Average: 8%
  proportion (%) of explants regenerating after 3 weeks, Experiment number 1: 10%
  proportion (%) of explants regenerating after 3 weeks, Experiment number 2: 10%
  proportion (%) of explants regenerating after 3 weeks, Experiment number 3: 5%
[2]; 7.5 mM
  proportion (%) of explants regenerating after 3 weeks, Average: 3%
  proportion (%) of explants regenerating after 3 weeks, Experiment number 1: 0%
  proportion (%) of explants regenerating after 3 weeks, Experiment number 2: 5%
  proportion (%) of explants regenerating after 3 weeks, Experiment number 3: 5%
[2]; 10 mM
  proportion (%) of explants regenerating after 3 weeks, Average: 0%
  proportion (%) of explants regenerating after 3 weeks, Experiment number 1: 0%
  proportion (%) of explants regenerating after 3 weeks, Experiment number 2: 0%
  proportion (%) of explants regenerating after 3 weeks, Experiment number 3: 0%
[2]; 30 mM
  proportion (%) of explants regenerating after 3 weeks, Average: 0%
  proportion (%) of explants regenerating after 3 weeks, Experiment number 1: 0%
  proportion (%) of explants regenerating after 3 weeks, Experiment number 2: 0%
  proportion (%) of explants regenerating after 3 weeks, Experiment number 3: 0%
[2]; regeneration and germination (Tables 4 and 5)
  levels that reduced the regeneration and germination of wheat plants: greater than 7.5 mM
[3]; 0.5 mM
  proportion (%) of explants regenerating after 3 weeks, Average: 10%
  proportion (%) of explants regenerating after 3 weeks, Experiment number 1: 10%
  proportion (%) of explants regenerating after 3 weeks, Experiment number 2: 15%
  proportion (%) of explants regenerating after 3 weeks, Experiment number 3: 5%
[3]; 1 mM
  proportion (%) of explants regenerating after 3 weeks, Average: 7%
  proportion (%) of explants regenerating after 3 weeks, Experiment number 1: 10%
  proportion (%) of explants regenerating after 3 weeks, Experiment number 2: 5%
  proportion (%) of explants regenerating after 3 weeks, Experiment number 3: 5%
[3]; 5 mM
  proportion (%) of explants regenerating after 3 weeks, Average: 5%
  proportion (%) of explants regenerating after 3 weeks, Experiment number 1: 5%
  proportion (%) of explants regenerating after 3 weeks, Experiment number 2: 5%
[3]; 7.5 mM
  proportion (%) of explants regenerating after 3 weeks, Average: 0%
  proportion (%) of explants regenerating after 3 weeks, Experiment number 1: 0%
  proportion (%) of explants regenerating after 3 weeks, Experiment number 2: 0%
  proportion (%) of explants regenerating after 3 weeks, Experiment number 3: 0%
[3]; 10 mM
  proportion (%) of explants regenerating after 3 weeks, Average: 0%
  proportion (%) of explants regenerating after 3 weeks, Experiment number 1: 0%
  proportion (%) of explants regenerating after 3 weeks, Experiment number 2: 0%
  proportion (%) of explants regenerating after 3 weeks, Experiment number 3: 0%
[3]; 30 mM
  proportion (%) of explants regenerating after 3 weeks, Average: 0%
  proportion (%) of explants regenerating after 3 weeks, Experiment number 1: 0%
  proportion (%) of explants regenerating after 3 weeks, Experiment number 2: 0%
  proportion (%) of explants regenerating after 3 weeks, Experiment number 3: 0%
[4]; 0.5 mM
  proportion (%) of explants germinated after 1 week, Average: 62%
  proportion (%) of explants germinated after 1 week, Experiment Number 1: 35%
  proportion (%) of explants germinated after 1 week, Experiment Number 2: 70%
  proportion (%) of explants germinated after 1 week, Experiment Number 3: 80%
[4]; 1 mM
  proportion (%) of explants germinated after 1 week, Average: 57%
  proportion (%) of explants germinated after 1 week, Experiment Number 1: 30%
  proportion (%) of explants germinated after 1 week, Experiment Number 2: 80%
  proportion (%) of explants germinated after 1 week, Experiment Number 3: 60%
[4]; 5 mM
  proportion (%) of explants germinated after 1 week, Average: 38%
  proportion (%) of explants germinated after 1 week, Experiment Number 1: 20%
  proportion (%) of explants germinated after 1 week, Experiment Number 2: 70%
  proportion (%) of explants germinated after 1 week, Experiment Number 3: 25%
[4]; 7.5 mM
  proportion (%) of explants germinated after 1 week, Average: 32%
  proportion (%) of explants germinated after 1 week, Experiment Number 1: 10%
  proportion (%) of explants germinated after 1 week, Experiment Number 2: 60%
  proportion (%) of explants germinated after 1 week, Experiment Number 3: 25%
[4]; 10 mM
  proportion (%) of explants germinated after 1 week, Average: 18%
  proportion (%) of explants germinated after 1 week, Experiment Number 1: 0%
  proportion (%) of explants germinated after 1 week, Experiment Number 2: 35%
  proportion (%) of explants germinated after 1 week, Experiment Number 3: 20%
[4]; 30 mM
  proportion (%) of explants germinated after 1 week, Average: 0%
  proportion (%) of explants germinated after 1 week, Experiment Number 1: 0%
  proportion (%) of explants germinated after 1 week, Experiment Number 2: 0%
  proportion (%) of explants germinated after 1 week, Experiment Number 3: 0%
